Experimental data as given in patent US20240316066A1, “COMPOSITION COMPRISING PIP4K2C INHIBITOR AS ACTIVE INGREDIENT FOR TREATMENT OF CANCER” (GWANGJU INSTITUTE OF SCIENCE AND TECHNOLOGY, priority 2021, published 2024).
Entries after “also recorded” stand apart in the source; their conditions may differ. Counter-ions that a name gives are not always drawn.

Legend:
Type in all cases: cell-based
[1] = system: colorectal cancer cells (HCT-116); test: MTT assay, colorectal cancer cells (HCT-116); conditions: HCT-116, 0.625 μM to 10 µM, 24 hours
Experimental: (§1) Cell proliferation was evaluated through MTT analysis. SJCRH30 and CCD-18Co cells were seeded in triplicate in 96-well plates at a density of 2×10^4 cells per well. After 24 hours, each FDA-approved drug was diluted in fetal bovine serum (FBS)-free medium and the cells were treated therewith. After 24 hours of incubation, the medium was replaced with MTT solution (0.5 mg/mL) and the plates were incubated at 37° C. under 5% CO2. After 60 minutes of incubation, the supernatants were removed and 50 μL of DMSO was added to each well. The optical density in each well was measured at 570 nm using a microplate reader (VersaMax, Molecular Devices, USA).
(§2) MTT assay was performed by treating colorectal cancer cells (HCT-116), pancreatic cancer cells (PANC-1), lung cancer cells (A549), and breast cancer cells (MDA-MB-231) with each of ivacaftor and adapalene and treating colorectal cancer cells (HCT-116), pancreatic cancer cells (PANC-1), and lung cancer cells (A549) with dutasteride. The cells were treated with each of the three drugs at concentrations of 0.625 μM, 1.25 μM, 2.5 μM, 5 μM, and 10 µM for 24 hours and then observed.

[2] = system: breast cancer cells (MDA-MB-231); test: MTT assay, breast cancer cells (MDA-MB-231); conditions: MDA-MB-231, 0.625 μM to 10 µM, 24 hours
Experimental: as §1, §2

[3] = system: SJCRH30 human alveolar rhabdomyosarcoma cells; test: MTT assay, proliferation of rhabdomyosarcoma cells (SJCRH30); conditions: for cell proliferation (MTT): SJCRH30, 5 μM and 10 μM; for cell killing effect (MTT): SJCRH30, 10 μM; for IC50: Homo sapiens, Rhabdomyosarcoma cell, SJCRH30, 24 hours, MTT, read-out: IC50 (half maximal inhibitory concentration)
Experimental: (§3) SJCRH30 human alveolar rhabdomyosarcoma cells were purchased from ATCC. Cells were cultured in RPMI1640 supplemented with 10% fetal bovine serum (FBS), 1% penicillin, and streptomycin. CCD-18Co human colon fibroblasts were purchased from the Korea Cell Line Bank. Cells were cultured in DMEM supplemented with 10% fetal bovine serum (FBS), 1% penicillin, and streptomycin. All cells were cultured in an incubator at 37° C. under 5% CO2.
as §1
MTT assay was performed to evaluate the effects of FDA-approved drugs on the proliferation of rhabdomyosarcoma cells (SJCRH30). Rhabdomyosarcoma cells were treated with each of 18 drugs at concentrations of 5 μM and 10 μM, respectively, and observed after 24 hours.
(§4) Rhabdomyosarcoma cells (SJCRH30) and colon fibroblasts (CCD-18Co) were treated with ivacaftor at concentrations of 0.625 μM, 1.25 μM, 2.5 μM, 5 μM, and 10 µM and compared.
MTT assay was performed to compare IC50 (half maximal inhibitory concentration) values of pazopanib HCl, which is used for soft tissue sarcoma patients, and ivacaftor, against rhabdomyosarcoma cells (SJCRH30). Rhabdomyosarcoma cells were treated with each of pazopanib HCl and ivacaftor at concentrations of 0.625 μM, 1.25 μM, 2.5 μM, 5 μM, 10 µM, 20 μM, 40 μM, and 60 µM for 24 hours and then observed.

[4] = system: lung cancer cells (A549); test: MTT assay, lung cancer cells (A549); conditions: A549, 0.625 μM to 10 µM, 24 hours
Experimental: as §1, §2

[5] = system: pancreatic cancer cells (PANC-1); test: MTT assay, pancreatic cancer cells (PANC-1); conditions: PANC-1, 0.625 μM to 10 µM, 24 hours
Experimental: as §1, §2

[6] = system: CCD-18Co human colon fibroblasts; test: MTT assay, toxicity to normal cells (CCD-18Co); conditions: 0.625 μM to 10 µM, all concentrations, 24 hours
Experimental: as §3, §1, §4

Row | Structure (SMILES) | cell proliferation (MTT) [1] | cell proliferation (MTT) [2] | cell proliferation (MTT) ([3]; 24 hours) | cell killing effect (MTT) ([3]; 24 hours) | cell proliferation (MTT) [4] | cell proliferation (MTT) [5] | cell number (MTT), toxicity to normal cells [6] | IC50 [3] | cell number (MTT) ([3]; SJCRH30, at 1.25 μM, 2.5 μM, 5 μM and 10 μM, 24 hours)
1 | COc1ccc(-c2ccc3cc(C(=O)O)ccc3c2)cc1C12CC3CC(CC(C3)C1)C2 [adapalene] | significant decrease in cell proliferation | significant decrease in cell proliferation | significant decrease in cell proliferation | significant cell killing effect | significant decrease in cell proliferation | significant decrease in cell proliferation |  |  | 
2 | C[C@@H](O[C@H]1OCCN(Cc2n[nH]c(=O)[nH]2)[C@H]1c1ccc(F)cc1)c1cc(C(F)(F)F)cc(C(F)(F)F)c1 [aprepitant] |  |  | significant decrease in cell proliferation | significant cell killing effect |  |  |  |  | 
3 | C[C@]12C=CC(=O)N[C@@H]1CC[C@@H]1[C@@H]2CC[C@]2(C)[C@@H](C(=O)Nc3cc(C(F)(F)F)ccc3C(F)(F)F)CC[C@@H]12 [dutasteride] | decrease in cell proliferation |  | significant decrease in cell proliferation | significant cell killing effect | decrease in cell proliferation | decrease in cell proliferation |  |  | 
4 | CC(C)(C)c1cc(C(C)(C)C)c(NC(=O)c2c[nH]c3ccccc3c2=O)cc1O [ivacaftor] |  | significant decrease in cell proliferation | significant decrease in cell proliferation; also recorded: highest effect on cell proliferation reduction | significant cell killing effect | significant decrease in cell proliferation | significant decrease in cell proliferation | no significant decrease in the cell number | 5.11 µM | significant decrease in the cell number
5 | Cc1ccc(Nc2nccc(N(C)c3ccc4c(C)n(C)nc4c3)n2)cc1S(N)(=O)=O [pazopanib HCl] |  |  |  |  |  |  |  | 40.9 µM | 
